{
  "source": "patent US11242337B2",
  "about": "“Compounds useful for treating gastrointestinal tract disorders” (Ardelyx, Inc., priority 2017, dated 2022)",
  "key": {"[1]": {"molecular_target": "T1, NHE3 (Homo sapiens, UniProt P48764)", "T1 construct": "expressed in transfected cells", "T1 sequence (P48764 26-834)": "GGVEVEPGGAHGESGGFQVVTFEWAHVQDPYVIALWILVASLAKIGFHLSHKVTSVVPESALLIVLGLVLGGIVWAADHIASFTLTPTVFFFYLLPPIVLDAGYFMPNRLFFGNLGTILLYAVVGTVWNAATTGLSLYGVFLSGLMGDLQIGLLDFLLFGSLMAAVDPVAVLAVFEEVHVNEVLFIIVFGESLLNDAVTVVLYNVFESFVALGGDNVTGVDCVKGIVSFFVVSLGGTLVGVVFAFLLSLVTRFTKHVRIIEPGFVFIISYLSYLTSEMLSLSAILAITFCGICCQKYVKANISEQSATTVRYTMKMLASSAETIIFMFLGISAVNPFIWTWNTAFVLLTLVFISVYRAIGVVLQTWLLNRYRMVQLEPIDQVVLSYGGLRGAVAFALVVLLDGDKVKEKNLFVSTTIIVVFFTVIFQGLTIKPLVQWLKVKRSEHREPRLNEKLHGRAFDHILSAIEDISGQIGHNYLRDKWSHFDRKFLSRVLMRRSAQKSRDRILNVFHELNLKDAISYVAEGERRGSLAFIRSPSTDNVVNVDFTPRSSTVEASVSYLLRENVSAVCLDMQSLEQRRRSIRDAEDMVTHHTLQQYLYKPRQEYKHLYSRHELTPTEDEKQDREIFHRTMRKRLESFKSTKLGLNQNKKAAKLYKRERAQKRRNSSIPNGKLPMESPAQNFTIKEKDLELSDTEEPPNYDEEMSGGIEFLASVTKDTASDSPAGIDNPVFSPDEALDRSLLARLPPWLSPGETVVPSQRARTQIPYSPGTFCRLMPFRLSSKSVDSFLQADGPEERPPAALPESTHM", "T1 sequence (Q99653 2-195 partner limits assumed)": "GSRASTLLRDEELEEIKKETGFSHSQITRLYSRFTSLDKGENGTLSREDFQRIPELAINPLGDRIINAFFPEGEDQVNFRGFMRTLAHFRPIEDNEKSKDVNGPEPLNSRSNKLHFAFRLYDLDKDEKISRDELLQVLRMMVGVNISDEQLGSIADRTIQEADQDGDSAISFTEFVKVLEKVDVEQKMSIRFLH", "assay": "Cell-based assay of NHE-3 activity (persistent inhibition), human", "settings": "human Persistence, 60 min incubation then washout", "outline": "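PS120 fibroblasts expressing human NHE3 with NHERF2 exposed to 0-30 μM compound for 60 min at RT, then washed out; cells acid-loaded by NH4Cl prepulse with BCECF-AM and Na+-free buffer. Na+-driven pH recovery started 10 min post-washout; initial rate of BCECF ratio change (FLIPR) taken as activity.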"}, "[2]": {"molecular_target": "T1, NHE3", "assay": "Cell-based assay of NHE-3 activity (pre-incubation inhibition), human", "settings": "human Preincubation", "outline": "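PS120 fibroblasts stably expressing human NHE3 and NHERF2, loaded 30 min at 37 °C with 5 μM BCECF-AM in NH4Cl buffer, then acidified 10 min at room temperature in Na+-free buffer with 0–30 μM compound. Initial rate of BCECF fluorescence ratio change (FLIPR) per minute taken as Na+/H+ activity.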"}},
  "note": "Structures can show the parent of a compound that is named as a salt.",
  "data": [
    {"smiles": "CN(C)[C@H]1Cc2c(Cl)cc(Cl)cc2[C@@H]1Oc1ccc(S(=O)(=O)N[C@@H]2CCN(CCOCCNC(=O)NCCCCNC(=O)NCCOCCN3CC[C@@H](NS(=O)(=O)c4ccc(O[C@H]5c6cc(Cl)cc(Cl)c6C[C@@H]5N(C)C)c(F)c4)C3)C2)cc1F", "note": "[Example 112, 4-([(1S,2S)-4,6-Dichloro-2-(dimethylamino)-2,3-dihydro-1H-inden-1-yl]oxy)-N—[(R)-1-(20-[(R)-3-([4-([(1S,2S)-4,6-dichloro-2-(dimethylamino)-2,3-dihydro-1H-inden-1-yl]oxy)-3-fluorophenyl]sulfonamido)pyrrolidin-1 yl]-7,14-dioxo-3,18-dioxa-6,8,13,15-tetraazaicosyl)pyrrolidin-3-yl)-3-fluorobenzenesulfonamide; tetra(trifluoroacetate)]", "values": [
      {"measurement": "% inhibition", "setting": "[1]", "value": "C (>70%)"},
      {"measurement": "pIC50", "setting": "[1]", "value": "C (NHE3 pIC50 > 7)"},
      {"measurement": "% inhibition", "setting": "[2]", "value": "C (>70%)"},
      {"measurement": "pIC50", "setting": "[2]; 0-30 μM test compound", "value": "C (NHE3 pIC50 > 7)"}
    ]},
    {"smiles": "N[C@@H]1CCCN([C@H]2Cc3c(Cl)cc(Cl)cc3[C@@H]2Oc2ccc(S(=O)(=O)NCCCCCCCCNC(=O)NCCCCNC(=O)NCCCCCCCCNS(=O)(=O)c3ccc(O[C@H]4c5cc(Cl)cc(Cl)c5C[C@@H]4N4CCC[C@@H](N)C4)cc3)cc2)C1", "note": "[Example 62, 3-[8-[(4-[[(1S,2S)-2-[(3R)-3-Aminopiperidin-1-yl]-4,6-dichloro-2,3-dihydro-1H-inden-1-yl]oxy]benzene)sulfonamido]octyl]-1-[4-[([8-[(4-[[(1S,2S)-2-[(3R)-3-aminopiperidin-1-yl]-4,6-dichloro-2,3-dihydro-1H-inden-1-yl]oxy]benzene)sulfonamido]octyl]carbamoyl)amino]butyl]urea; bis(trifluoroacetic acid)]", "values": [
      {"measurement": "% inhibition", "setting": "[1]", "value": "A (NHE3 < 40%)"},
      {"measurement": "IC50", "setting": "[1]", "value": "> 1000", "unit": "nM"},
      {"measurement": "% inhibition", "setting": "[2]", "value": "C (>70%)"},
      {"measurement": "IC50", "setting": "[2]; 0-30 μM test compound", "value": "< 100", "unit": "nM"}
    ]},
    {"smiles": "Cc1cc(S(=O)(=O)NCCOCCOCCNC(=O)NCCCCNC(=O)NCCOCCOCCNS(=O)(=O)c2cc(C)c(O[C@H]3c4cc(Cl)cc(Cl)c4C[C@@H]3N3CCC[C@@H](N)C3)c(F)c2)cc(F)c1O[C@H]1c2cc(Cl)cc(Cl)c2C[C@@H]1N1CCC[C@@H](N)C1", "note": "[Example 83, 1-[2-(2-[2-[(4-[[(1S,2S)-2-[(3R)-3-Aminopiperidin-1-yl]-4,6-dichloro-2,3-dihydro-1H-inden-1-yl]oxy]-3-fluoro-5-methylbenzene)sulfonamido]ethoxy]ethoxy)ethyl]-3-[4-([[2-(2-[2-[(4-[[(1S,2S)-2-[(3R)-3-aminopiperidin-1-yl]-4,6-dichloro-2,3-dihydro-1H-inden-1-yl]oxy]-3-fluoro-5-methylbenzene)sulfonamido]ethoxy]ethoxy)ethyl]carbamoyl]amino)butyl]urea; hydrochloride]", "values": [
      {"measurement": "% inhibition", "setting": "[1]", "value": "C (>70%)"},
      {"measurement": "IC50", "setting": "[1]", "value": "100 to 1000", "unit": "nM"},
      {"measurement": "% inhibition", "setting": "[2]", "value": "C (>70%)"},
      {"measurement": "pIC50", "setting": "[2]; 0-30 μM test compound", "value": "C (NHE3 pIC50 > 7)"}
    ]},
    {"smiles": "Cc1cc(S(=O)(=O)NCCOCCOCCNC(=O)NCCCCNC(=O)NCCOCCOCCNS(=O)(=O)c2ccc(O[C@H]3c4cc(Cl)cc(C)c4C[C@@H]3N3CCC[C@@H](N)C3)c(C)c2)ccc1O[C@H]1c2cc(Cl)cc(C)c2C[C@@H]1N1CCC[C@@H](N)C1", "note": "[Example 7, 3-[2-(2-[2-[(4-[[(1S,2S)-2-[(3R)-3-Aminopiperidin-1-yl]-6-chloro-4-methyl-2,3-dihydro-1H-inden-1-yl]oxy]-3-methylbenzene)sulfonamido]ethoxy]ethoxy)ethyl]-1-[4-([[2-(2-[2-[(4-[[(1S,2S)-2-[(3R)-3-aminopiperidin-1-yl]-6-chloro-4-methyl-2,3-dihydro-1H-inden-1-yl]oxy]-3-methylbenzene)sulfonamido]ethoxy]ethoxy)ethyl]carbamoyl]amino)butyl]urea]", "values": [
      {"measurement": "% inhibition", "setting": "[1]", "value": "C (>70%)"},
      {"measurement": "% inhibition", "setting": "[2]", "value": "C (>70%)"}
    ]},
    {"smiles": "Cc1cc(O[C@H]2c3cc(Cl)cc(Cl)c3C[C@@H]2N2CCC[C@@H](N)C2)c(F)cc1S(=O)(=O)NCCOCCOCCNC(=O)NCCCCNC(=O)NCCOCCOCCNS(=O)(=O)c1cc(F)c(O[C@H]2c3cc(Cl)cc(Cl)c3C[C@@H]2N2CCC[C@@H](N)C2)cc1C", "note": "[Example 87, 3-[2-(2-[2-[(4-[[(1S,2S)-2-[(3R)-3-Aminopiperidin-1-yl]-4,6-dichloro-2,3-dihydro-1H-inden-1-yl]oxy]-5-fluoro-2-methylbenzene)sulfonamido]ethoxy]ethoxy)ethyl]-1-[4-([[2-(2-[2-[(4-[[(1S,2S)-2-[(3R)-3-aminopiperidin-1-yl]-4,6-dichloro-2,3-dihydro-1H-inden-1-yl]oxy]-5-fluoro-2-methylbenzene)sulfonamido]ethoxy]ethoxy)ethyl]carbamoyl]amino)butyl]urea; bis(trifluoroacetic acid)]", "values": [
      {"measurement": "% inhibition", "setting": "[1]", "value": "C (>70%)"},
      {"measurement": "% inhibition", "setting": "[2]", "value": "C (>70%)"}
    ]},
    {"smiles": "N#Cc1cc(Cl)cc2c1C[C@H](N1C[C@@H]3C[C@H]1CN3)[C@H]2Oc1ccc(S(=O)(=O)N[C@H]2CCN(CCOCCNC(=O)NCCCCNC(=O)NCCOCCN3CC[C@H](NS(=O)(=O)c4ccc(O[C@H]5c6cc(Cl)cc(C#N)c6C[C@@H]5N5C[C@@H]6C[C@H]5CN6)cc4)C3)C2)cc1", "note": "[Example 130, 4-([(1S,2S)-2-[(1S,4S)-2,5-Diazabicyclo[2.2.1]heptan-2-yl]-6-chloro-4-cyano-2,3-dihydro-1H-inden-1-yl]oxy)-N—[(S)-1-(20-[(S)-3-[(4-([(1S,2S)-2-[(1S,4S)-2,5-diazabicyclo[2.2.1]heptan-2-yl]-6-chloro-4-cyano-2,3-dihydro-1H-inden-1-yl]oxy)phenyl]sulfonamido)pyrrolidin-1-yl]-7,14-dioxo-3,18-dioxa-6,8,13,15-tetraazaicosyl)pyrrolidin-3-yl]benzenesulfonamide; bis(trifluoroacetic acid)]", "values": [
      {"measurement": "% inhibition", "setting": "[1]", "value": "C (>70%)"},
      {"measurement": "IC50", "setting": "[1]", "value": "100 to 1000", "unit": "nM"},
      {"measurement": "% inhibition", "setting": "[2]", "value": "B (40-70%)"},
      {"measurement": "pIC50", "setting": "[2]; 0-30 μM test compound", "value": "C (NHE3 pIC50 > 7)"}
    ]},
    {"smiles": "N[C@@H]1CCCN([C@H]2Cc3c(Cl)cc(Cl)cc3[C@@H]2Oc2ccc(S(=O)(=O)N3CCC(OCCOCCNC(=O)NCCCCNC(=O)NCCOCCOC4CCN(S(=O)(=O)c5ccc(O[C@H]6c7cc(Cl)cc(Cl)c7C[C@@H]6N6CCC[C@@H](N)C6)cc5)CC4)CC3)cc2)C1", "note": "[Example 95, 3-[2-[2-([1-[(4-[[(1S,2S)-2-[(3R)-3-Aminopiperidin-1-yl]-4,6-dichloro-2,3-dihydro-1H-inden-1-yl]oxy]benzene)sulfonyl]piperidin-4-yl]oxy)ethoxy]ethyl]-1-[4-[([2-[2-([1-[(4-[[(1S,2S)-2-[(3R)-3-aminopiperidin-1-yl]-4,6-dichloro-2,3-dihydro-1H-inden-1-yl]oxy]benzene)sulfonyl]piperidin-4-yl]oxy)ethoxy]ethyl]carbamoyl)amino]butyl]urea]", "values": [
      {"measurement": "% inhibition", "setting": "[1]", "value": "C (>70%)"},
      {"measurement": "pIC50", "setting": "[1]", "value": "C (NHE3 pIC50 > 7)"},
      {"measurement": "% inhibition", "setting": "[2]", "value": "C (>70%)"},
      {"measurement": "pIC50", "setting": "[2]; 0-30 μM test compound", "value": "C (NHE3 pIC50 > 7)"}
    ]},
    {"smiles": "N#Cc1cc(Cl)cc2c1C[C@H](N1CCNCC1)[C@H]2Oc1ccc(S(=O)(=O)N[C@@H]2CCN(C(=O)CCCNC(=O)NCCCCNC(=O)NCCCC(=O)N3CC[C@@H](NS(=O)(=O)c4ccc(O[C@H]5c6cc(Cl)cc(C#N)c6C[C@@H]5N5CCNCC5)cc4)C3)C2)cc1", "note": "[Example 142, 4-([(1S,2S)-6-Chloro-4-cyano-2-(piperazin-1-yl)-2,3-dihydro-1H-inden-1-yl]oxy)-N—[(R)-1-(18-[(R)-3-([4-([(1S,2S)-6-chloro-4-cyano-2-(piperazin-1-yl)-2,3-dihydro-1H-inden-1-yl]oxy)phenyl]sulfonamido)pyrrolidin-1-yl]-6,13,18-trioxo-5,7,12,14-tetraazaoctadecanoyl)pyrrolidin-3-yl]benzenesulfonamide]", "values": [
      {"measurement": "% inhibition", "setting": "[1]", "value": "C (>70%)"},
      {"measurement": "pIC50", "setting": "[1]", "value": "C (NHE3 pIC50 > 7)"},
      {"measurement": "% inhibition", "setting": "[2]", "value": "C (>70%)"},
      {"measurement": "pIC50", "setting": "[2]; 0-30 μM test compound", "value": "C (NHE3 pIC50 > 7)"}
    ]}
  ]
}
